Molecules are shown by their SMILES.

T1 sequence (P37288 whole entry): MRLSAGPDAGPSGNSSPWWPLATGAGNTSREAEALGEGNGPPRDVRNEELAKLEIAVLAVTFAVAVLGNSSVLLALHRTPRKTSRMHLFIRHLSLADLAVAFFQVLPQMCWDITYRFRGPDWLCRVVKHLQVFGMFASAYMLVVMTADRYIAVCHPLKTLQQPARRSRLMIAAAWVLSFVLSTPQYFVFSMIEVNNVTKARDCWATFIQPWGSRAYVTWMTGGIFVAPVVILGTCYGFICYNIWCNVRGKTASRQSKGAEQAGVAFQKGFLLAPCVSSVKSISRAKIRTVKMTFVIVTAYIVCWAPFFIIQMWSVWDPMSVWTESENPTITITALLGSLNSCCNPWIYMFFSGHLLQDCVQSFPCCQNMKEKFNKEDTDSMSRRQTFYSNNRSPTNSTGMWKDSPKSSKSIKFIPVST

This assay has as its target T1, human V1A receptor (Homo sapiens, UniProt P37288).
T1 construct: expressed in transfected cells; host or cells: CHO cells (CHO-hV1A line provided by Marc Thibonnier, Case Western Reserve University)
Description: V1A filter binding assay ([3H]-AVP binding to CHO-hV1A membranes). Here is the method: 1.0 V1A Filter Binding Assay
Receptor binding assays were performed on cellular membranes prepared from CHO cells stably expressing the human V1A receptor, (CHO-hV1A). The CHO-hV1A cell line was kindly provided under a licensing agreement by Marc Thibonnier, Dept. of Medicine, Case Western Reserve University School of Medicine, Cleveland, Ohio. CHO-hV1A cells were routinely maintained at 37° C. in humidified atmosphere with 5% CO2 in DMEM/Hams F12 nutrient mix supplemented with 10% fetal bovine serum, 2 mM L-glutamine, 15 mM HEPES and 400 μg/ml G418. For bulk production of cell pellets, adherent CHO-hV1A cells were grown to confluency of 90-100% in 850 cm^2 roller bottles containing a medium of DMEM/Hams F12 Nutrient Mix supplemented with 10% fetal bovine serum, 2 mM L-glutamine and 15 mM HEPES. Confluent CHO-hV1A cells were washed with phosphate-buffered saline (PBS), harvested into ice cold PBS and centrifuged at 1,000 rpm. Cell pellets were stored at −80° C. until use. Cell pellets were thawed on ice and homogenised in membrane preparation buffer consisting of 50 mM Tris-HCl, pH 7.4, 5 mM MgCl2 and supplemented with a protease inhibitor cocktail, (Roche). The cell homogenate was centrifuged at 1000 rpm, 10 min, 4° C. and the supernatant was removed and stored on ice. The remaining pellet was homogenised and centrifuged as before. The supernatants were pooled and centrifuged at 25,000×g for 30 min at 4° C. […] Protein concentration was determined using Bradford reagent and BSA as a standard.
Protein linearity followed by saturation binding studies were performed on each new batch of membrane. […] Saturation binding studies were then performed using various concentrations of [^3H]-arginine vasopressin, [^3H]-AVP (0.05 nM-100 nM) and the Kd and Bmax determined.
Compounds were tested for their effects on [^3H]-AVP binding to CHO-hV1A membranes, (^3H-AVP; specific activity 65.5 Ci/mmol; NEN Life Sciences). […] The plates were sealed and counted on a TopCount Microplate Scintillation Counter (Packard Instruments). Non-specific binding (NSB) was determined using 1 μM unlabelled d(CH2)5Tyr(Me)AVP ([β-mercapto-β,β-cyclopentamethylenepropionyl, 0-Me-Tyr^2,Arg^8]-vasopressin ) (βMCPVP), (Sigma). The radioligand binding data was analysed using a four parameter logistic equation with the min forced to 0%. […] Specific binding was calculated by subtracting the mean NSB cpm from the mean Total cpm. For test compounds the amount of ligand bound to the receptor was expressed as % bound=(sample cpm−mean NSB cpm)/specific binding cpm×100. […] The inhibitory dissociation constant (Ki) was calculated using the Cheng-Prusoff equation: Ki=IC50/(1+[L]/Kd) where [L] is the concentration of ligand present in the well and Kd is the dissociation constant of the radioligand obtained from Scatchard plot analysis. […]
Consider `COCc1nnc(N2Cc3ccccc3C2)n1-c1ccc(Cl)cc1` [Example 1, 2-[4-(4-Chlorophenyl)-5-(methoxymethyl)-4H-1,2,4-triazol-3-yl]isoindoline], for which affinity was put at a Ki of 9.69 nM.
As to `Cc1nnc(N2CCC3(CC2)OCc2ccccc23)n1-c1ccc(Cl)cc1` [Example 6, 1′-[4-(4-Chlorophenyl)-5-methyl-4H-1,2,4-triazol-3-yl]-3H-spiro[2-benzofuran-1,4′-piperidine]], the affinity corresponds to a Ki of 6.58 nM. The Ki values of the last two compounds are within 1.5-fold of each other.
As for `Clc1ccc(-n2c(Cn3nccn3)nnc2N2Cc3ccccc3C2)cc1` [Example 8, 2-[4-(4-Chlorophenyl)-5-(2H-1,2,3-triazol-2-ylmethyl)-4H-1,2,4-triazol-3-yl]isoindoline], the affinity corresponds to a Ki of 0.88 nM. Against the preceding compound, the Ki is about 7.5-fold lower.
Consider `OCc1ccc2c(c1)CN(c1nnc(Cn3nccn3)n1-c1ccc(Cl)cc1)C2` [Example 10, {2-[4-(4-Chlorophenyl)-5-(2H-1,2,3-triazol-2-ylmethyl)-4H-1,2,4-triazol-3-yl]-2,3-dihydro-1H-isoindol-5-yl}methanol], for which the affinity, expressed as Ki, was 0.47 nM.

Source of the values: patent US20080234252A1, “Compounds Useful in Therapy” (Pfizer Inc, priority 2005, published 2008).
